Test results as given in a melting point compilation (Tetko et al.; mined from patent text by program, amines drawn as free bases though some values may be those of a salt).

| melting point | SMILES |
| --- | --- |
| 141 to 143 °C | O=C1c2ccccc2C(=O)N1Cc1ccc(/C=C/C(c2cc(Cl)cc(Cl)c2)C(F)(F)F)cc1Cl (stereo unspecified) |
| 201 to 202 °C | CCOC(=O)Cc1nn2c(-c3ccc(OC)cc3)nnc2c2ccccc12 |
| 163 to 167 °C | O=S1(=O)Cc2ccc(F)cc2C(c2ccc(F)cc2)=NN1CCCc1ccccc1 |
| 225 to 227 °C | CC1(C)CN=C2C(c3ccccc3)=[N+]([O-])c3cc(C(F)(F)F)ccc3N2C1 |
| 123 to 125 °C | Cc1ccccc1Sc1cccc(C(C)C(=O)O)c1O (stereo unspecified) |
| 126 to 127 °C | O=c1c2ccccc2sc2ccc(SC(F)(F)F)cc12 |
| 162 to 165 °C | CCOC(=O)CCC1(c2c[nH]cn2)Cc2ccccc2C1=O (stereo unspecified) |
| 361 to 364 °C | O=c1c2ccc(Cl)cc2[nH]c2c(O)nn(CCN3CCN(c4ccccc4)CC3)c(=O)c12 |
| 196 to 205 °C | COc1ccccc1NC(=O)Nc1nc(NCCC(=O)O)nc(Nc2ccccc2-c2ccccc2)n1 |
| 165 to 166 °C | Cc1cc(C(=O)c2ccccc2)c(C)n1C(C)C(=O)Nc1ccccc1 (stereo unspecified) |
| 112 °C | CCCCCC=Cc1cccc2c(=O)[nH]c(-c3cc(S(=O)(=O)N4CCOCC4)ccc3OCCC)nc12 |
| 148 to 149 °C | CN(C)c1ccccc1Sc1nc2ccccc2[nH]1 |
| 124 °C | O=c1cc(-c2ccccc2)oc2cccc(OCCO)c12 |
| 153 to 154 °C | O=[N+]([O-])c1ccc(Sc2cccc3cnccc23)cc1NCc1ccccc1 |
| 130 °C | Nc1ccc2c(cnn2Cc2cccc(F)c2)c1 |
| 174 °C | CCCNC(=O)C(O)C1c2ccccc2C(=O)N1c1ccc2ccc(Br)nc2n1 (stereo unspecified) |
| 100 to 102 °C | O=C(CCCN1C(=O)c2ccccc2C1=O)N1CCC(C2c3ncc(Br)cc3CCc3cc(Cl)cc(Br)c32)CC1 (single isomer, unassigned; (+)) |
| 168 to 170 °C | CC(=O)Nc1ccc(OCc2nc3ccccc3s2)cc1 |
| 74 to 75 °C | CCOC(=O)c1cc2cc(OCOC)ccc2s1 |
| 205 to 206 °C | NC(=O)Cc1ccc2c(c1)CCc1ccccc1O2 |

| melting point | SMILES |
| --- | --- |
| 58 to 59 °C | COC(=O)c1ccc(OCc2ccccc2)c(OC2CCCC2)c1 |
| 125 to 126 °C | O=C(Oc1ccccc1)N1C(=O)[C@H](O)[C@@H]1c1ccccc1 |
| 155 to 158 °C | CCC(OC(=O)CCNC(=O)OC(C)(C)C)c1cc2n(c(=O)c1C)Cc1cc3ccccc3nc1-2 (stereo unspecified) |
| 76 to 79 °C | CCCCC1(CCCC)CS(=O)(=O)c2ccc(N(C)C)cc2[C@@H](c2ccc(OCCCCC(=O)O)cc2)[C@H]1O |
| 179 to 180 °C | COC(=O)c1cc(O)c2ccc(OCc3ccccc3)cc2c1 |
| 170 to 171 °C | CCN1C(=O)Cc2cc3ccccc3cc2S1(=O)=O |
| 71 °C | O=[N+]([O-])c1cc(S(=O)(=O)Oc2ccccc2)ccc1Cl |
| 207 to 209 °C | CC(C)c1cccc(C(C)C)c1NC(=O)c1ccccc1N |
| 163 to 164 °C | COC(=O)C1=C(O)c2sc3ccccc3c2S(=O)(=O)N1Cc1ccc(OC)cc1 |
| 155 to 158 °C | C#CC[C@H](c1nc2cc(Cl)ccc2c(=O)n1Nc1ccccc1)N(CCCN)C(=O)c1cc(F)c(F)c(F)c1F |
| 107 to 108 °C | CCOC(=O)c1ccnc(NC(=O)CCc2ccccc2)c1 |
| 229 to 231 °C | CC(C)c1nc2c(N)nc3ccccc3c2n1CCOc1ccccc1 |
| 207 to 213 °C | O=C(NC(=O)c1c(F)cccc1Cl)Nc1ccc(Br)cn1 |
| 108 to 112 °C | CCc1nn2ccccc2c1C(C)=O |
| 83 to 84 °C | CCOc1cccc(Oc2cccnc2C#N)c1 |
| 226 to 228 °C | CCCc1nc(C)c2c(Sc3ccc(NC(C)=O)cc3)nc(-c3ccccc3OCC)nn12 |
| 154 to 157 °C | O=C1N(C2=NCCS2)c2ccccc2C12SCCS2 |
| 158 to 160 °C | O=[N+]([O-])c1cccc(Oc2ccc(Oc3cccc([N+](=O)[O-])c3)cc2)c1 |
| > 310 °C | N#Cc1ccc(-c2nc3c(C(N)=O)cccc3[nH]2)cc1 |
| 63.6 to 64.4 °C | CCOC(=O)c1cc(-c2ccc(OC)cc2)nn(CC2CCCC2)c1=O |

The remaining lines, values behind:

| SMILES | melting point |
| --- | --- |
| CCCNc1nc(NCCC)nc(N2CCN(C(=O)Nc3cc(C)c(C)nc3OC)CC2)n1 | 140 to 143 °C |
| OCc1c(C2CC2)nn2ccc3c(c12)CCO3 | 139 to 140 °C |
| CCOC(=O)c1cn(C2CC2)c2cc(C3=CCN(C(C)=O)CC3)c(F)cc2c1=O | 190 to 192 °C |
| COC(=O)c1nc2cc(C)ccc2c(O)c1C(=O)OC | 209 to 211 °C |
| COC1=CC(=O)CN(C)C1 | 71 to 72 °C |
| ON=C1CCC(c2ccccc2)CC1 (stereo unspecified) | 110 to 112 °C |
| CCC1(CC)c2cc(-c3cc4ccccc4[nH]3)ccc2-c2ccc(N(c3ccccc3)c3ccccc3)cc21 | 102 to 104 °C |
| COc1cc(CI)ccc1C12CC3CC(CC(C3)C1)C2 | 143 to 144 °C |
| CC(CCNC(=O)c1ccc(Cl)s1)n1ccnc1 (stereo unspecified) | 141 to 143 °C |
| O=C1C=CCCC=CCCC=CCCC=C1 | 30 to 37 °C |
| COc1ccc(CNc2nc(SC)ncc2C(=O)Nc2cncnc2)cc1Cl | 238 to 240 °C |
| CC1(C)CC(O)CC(C)(C)N1Cc1ccccc1 | 151 to 152 °C |
| NS(=O)(=O)c1ccc(-c2c(-c3ccccc3)[nH]c3ccccc23)cc1 | 223 to 225 °C |
| O=C(NCc1ccc(Cl)cc1)c1cnc2cc(C(F)(F)F)c(SCc3ccccc3)cc2c1O | 185 to 188 °C |
| O=C(O)c1ccc2oc(-c3ccc(C(F)(F)F)cc3)cc2c1 | > 260 °C |
| CCCCCCCCCCCCCCCCC(Cl)C(=O)O (stereo unspecified) | 63.5 to 64 °C |
| CC(C)(C)OC(=O)NCCc1cccc(OCCC2Oc3ccccc3N(Cc3ccccc3Cl)C2=O)c1 (stereo unspecified) | 61 to 65 °C |
| O=S(=O)(c1ccc(N2CCCCCC2)cc1)N1CC(O)CC1=S (stereo unspecified) | 138 to 139 °C |
| CC1(C)CC(NC(=O)Nc2ccccc2)CC(C)(C)N1CC#N | 218 to 220 °C |
| NC(=O)N(O)Cc1ccc(OCc2coc(-c3ccc(C(F)(F)F)cc3)n2)cc1 | 128 to 130 °C |
| N#CC(=Cc1cccnc1)c1ccc(Cl)cc1 | 141 to 143 °C |

| SMILES | melting point |
| --- | --- |
| NNC(=O)c1ncn2c1C1CCN1C(=O)c1sccc1-2 (stereo unspecified) | 260 to 263 °C |
| O=[N+]([O-])c1cc(C(F)(F)F)cc([N+](=O)[O-])c1Nc1ncc(Cl)cc1Cl | 85 to 87 °C |
| CCCOC(=O)c1c(-c2ccncc2)[nH]c(-c2ccncc2)c1C | 215 to 218 °C |
| O=Cc1csc(N2CCCCC2)n1 | 68 to 69 °C |
| CC(C)S(=O)(=O)c1ccc2[nH]nc(Nc3nccs3)c2c1 | 146 to 148 °C |
| NC(=NCC(F)(F)F)Nc1ccnc(CSCCNc2nc(N)n[nH]2)n1 | 199 to 201 °C |
| Cc1ccc(OC2SCC(O)C(O)C2O)c(-c2ccncc2)n1 (stereo unspecified) | 196 to 200 °C |
| O=C(O)Cc1ccc2c(c1)N(C1CCN(CCc3ccc(F)cc3)CC1)CC2 | 130 to 132 °C |
| CC(O)CNS(=O)(=O)c1ccc(Nc2nc(OCC3CCCCC3)c3nc[nH]c3n2)cc1 (stereo unspecified) | 236 to 238 °C |
| CCCOCc1nc(C(C)(C)O)c(C(=O)OCCC)[nH]1 | 72 to 73 °C |
| CC1(C)C(=O)Nc2ccc(-c3ccc(C#N)o3)cc21 | 193 to 194 °C |
| NNC(=O)CCCCCCCCOC1OC(CO)C(O)C(O)C1O (stereo unspecified) | 194 °C |
| O=CC=CC(=C(c1ccc(F)cc1)c1ccc(F)cc1)n1nnnc1-c1ccccc1 | 198 to 200 °C |
| OC1CSC(Oc2ccc(-c3ccnc(F)c3)nc2Cl)C(O)C1O (stereo unspecified) | 195 °C |
| COc1cc(Cl)ccc1C(C)=O | 55 °C |
| CC(C)(C)c1cc(C(=O)NCc2cccc(N)c2)cc(C(C)(C)C)c1O | 171 to 172 °C |
| CCCCOc1ccc2c(C(F)(F)F)c(OC)ccc2c1C(=O)N(C)CC(=O)O | 152 to 155 °C |
| C[Si](C)(C)CCOCn1ccnc1-c1c(N)n(CC2CC2)c2nc(Cl)ccc2c1=O | 70 °C |
| Cc1nc(-n2cnn(Cc3ccc(F)cc3)c2=O)sc1C(=O)NCc1cccc(N(C)C)c1 | 149 to 151 °C |
| O=S(=O)(c1ccc(F)cc1)N1CCOCC1 | 106 to 107 °C |
| Cc1c(S(=O)(=O)c2ccc(=O)[nH]n2)oc2cccc(Cl)c12 | 232 to 233 °C |

| SMILES | melting point |
| --- | --- |
| CCCCCCCCCCCCCCCCOCC(=O)O | 64 to 66 °C |
| COc1ccc2c(c1)CCC1CCNC(=O)C(CC(C)=NO)=C21 (stereo unspecified) | 216 to 218 °C |
| CC1(C)OCC(COc2ccc(Br)cc2C23CC4CC(CC(C4)C2)C3)O1 (stereo unspecified) | 91 °C |
| CC(=O)OCC(=O)C1=CCC2C3CCC4=CC(=O)C=CC4(C)C34OC4CC12C (stereo unspecified) | 164 to 165 °C |
| N#CCc1ccc(C2CCCCC2)cc1 | 48 to 49 °C |
| O=C(NCCO)c1ccnc(-c2cccc3cc(Cc4cccc(C(F)(F)F)c4)sc23)c1 | 168 to 169 °C |
| O=C1CCC(c2ccccc2)(c2ccccc2)[C@@H]2CN(C(=O)Cc3c[nH]c4ccccc34)C[C@H]12 (racemic) | 250 °C |
| CCOC(=O)C(=CNc1cccc(N)c1)C(=O)OCC | 71 to 74 °C |
| O=C(O)C1CCc2onc(-c3ccc(Cl)cc3)c2C1 (stereo unspecified) | 203 to 205 °C |
| O=c1c(-c2ccc(F)cc2)c(-c2ccc(SC(F)(F)F)cc2)cnn1Cc1ccccc1 | 145 to 146 °C |
| CNC(=O)n1cc(F)cnc1=O | 166 °C |
| O=C(c1ccccc1)C1CCN(CC2CN(c3ccccc3)C(=O)O2)CC1 (stereo unspecified) | 104 to 105 °C |
| COC(=O)C(NC(C)=O)NC(=O)c1cc(Cl)cc(Cl)c1 (stereo unspecified) | 235 to 237 °C |
| CC1CCCN(S(=O)(=O)c2ccc(OC(C)C)c(C(=O)O)c2)C1 (stereo unspecified) | 102 to 104 °C |
| C=C(C)Cn1nc(C(=O)c2cccc(O)c2)c2ccccc21 | 75 to 78 °C |
| C=C(C(=O)OC(C)(C)C)C(O)c1ccc(C(=O)OC)cc1 (stereo unspecified) | 70 °C |
| Cc1cnc(CNC(=O)c2sc(-n3cnn(Cc4ccc(F)cc4)c3=O)nc2C)cn1 | 188 to 189 °C |
| C=CC(=O)NC(C)(C)c1ccc(CC(=O)OCCC)cc1 | 71 to 72 °C |
| CCCCCCCCCCCCCCCC(=O)Nc1cc(NC(=O)CCCCCCCCCCCCCCC)cc(C(=O)N(CC(=O)O)CC(=O)O)c1 | 129 to 133 °C |
